Source: patent US11413349B2, “Green methodology to create polymeric nanocarriers containing hydrophilic low molecular-weight drugs and providing a very high drug loading and a very high prolonged release” (UNIVERSIDAD DE CHILE, priority 2019, dated 2022)
Where two headings read alike, the source gives them in different places.

Key:
[1] = Diafiltration study of kinetically and thermodynamically bound drug; format: physicochemical
Description: Diafiltration studies were carried out to determine the fraction of amitriptyline (AMT) that was kinetically or thermodynamically bound to poly(sodium 4-styrenesulfonate (PSS) as the nanoparticle. For this study, diafiltration was been modeled as a two-compartment system, where a continuous liquid supply from the donor chamber (reservoir) is kept, maintaining a constant volume in the diafiltration cell. The unit used for diafiltration analyses consisted of a diafiltration cell, a regenerated cellulose membrane, a reservoir, a […], and a pressure source. […] The volume in the filtration cell was kept constant during the experiment, by creating a continuous flux of liquid through the diafiltration cell, from the reservoir to the collector tube. […] A total of 8 samples (approx. 5 mL) were collected and AMT concentration in each sample was determined by spectrophotometry. Subsequently, the thermodynamically bound (TB) and kinetically bound (KB) fractions were determined as follows: TB=v(km-j)/km KB=u-um The parameters v and u represent the initial fraction of AMT thermodynamically bound to the particles, thus in equilibrium, and the fraction bound to the nanocarriers whose release is kinetically controlled, respectively. […] A total of 8 samples (approx. 5 mL) were collected and the concentration of the interest species in each sample was determined by spectrophotometry. […]

[2] = cited from earlier work
[3] = cited from earlier work; remark: listed apart in the source
[4] = In vitro drug release by dialysis; format: physicochemical; details: AMT/PSS n+/n−=0.60, dialysis, pH=7 and 37° C., 20 days
Description: The in vitro drug release of amitriptyline (AMT) from poly (sodium 4-styrenesulfonate (PSS) was evaluated using a dialysis method. Briefly, 5 mL of AMT/PSS (n+/n−=0.60) was transferred to a dialysis membrane. The membrane was immersed in 95 mL of Milli-Q water at pH 7 and kept at 37° C. and 100 rpm in an orbital shaker. The experiment was carried out for 20 days. Aliquots (500 μL) of the solution were withdrawn at certain time intervals and replaced with an equal volume of fresh Milli-Q water. The amount of released AMT was determined by measuring the absorbance of each aliquot at 239 nm. The standard curve of AMT in water was linear (R2>0.997) in the range of concentrations between 7×10^−5 M and 7×10^−7 M (molar extinction coefficient was 12712 M^−1 cm^−1). Blank experiments dialyzing free AMT were carried out at the same conditions.
i) Dialysis: 5 mL of HALMD/PSS formulations were added in a dialysis bag (MWCO 10 kDa, ThermoScientific, USA). The dialysis system was immersed in 95 mL of Milli-Q water at pH 7 and kept at 37° C., and 100 rpm in an orbital shaker (LSI-3016R, LabTech, Daihan LabTech, Kyonggi-Do, Korea). […] The amount of released HALMD (CQ, PMZ and CPM) was determined by measuring the absorbance of each aliquot by spectrophotometry (Agilent 8453 spectrophotometer, USA).

For CN(C)CCC(c1ccc(Cl)cc1)c1ccccn1 (centres unmarked) [Chlorpheniramine], the “drug association attributed to kinetic binding” value ([1]; HALMD/PSS NPs) is listed as “≈ 50%”, the pKa [2] is listed as 4.0 and the pKa ([2]; second value) is listed as 9.4.

For CN(C)CCCN1c2ccccc2CCc2ccccc21 [imipramine], the burst release ([3]; from calcium-alginate gel beads, 1-2 h (Tomida et al)) is listed as “≈ 80%”.

For COc1cccc2c1C(=O)c1c(O)c3c(c(O)c1C2=O)C[C@@](O)(C(=O)CO)C[C@@H]3O[C@H]1C[C@H](N)[C@H](O)[C@H](C)O1 [doxorubicin], the initial drug release ([3]; poly(N-isopropylacrylamide)-based thermosensitive hydrogel (Chen et al)) is given as 40%.

For CN(C)CCC=C1c2ccccc2CCc2ccccc21 [AMT, amitriptyline], the “drug molecules not subjected to equilibrium with the bulk (release kinetically controlled)” value ([1]; AMT/PSS formulations) is given as “more than 80%”, the “release of AMT” value [4] is given as no more than 16.5% and the release ([3]; from polyvinyl alcohol-based beads, first stage of the experiment (Ahnfelt et al)) is given as greater than 80%.
